Source: patent US20100105773A1, “USE OF RESOLVINS AND DOCOSATRIENES AND ANALOGUES THEREOF FOR THE TREATMENT OF ANGIOGENESIS AND OCULAR NEOVASCULARIZATION” (THE CHILDREN'S MEDICAL CENTER CORPORATION, priority 2006, published 2010)
“Also recorded” adds a separate entry of the source.

Tests used:
[1] = test system: oxygen-induced retinopathy (retinal vasculature); assay: O2-induced retinopathy: vaso-obliteration and neovascularization at P17; type: in vivo, mouse; conditions: for decrease in neovascularization (Tufts) compared to vehicle / decrease in vessel loss (VO) compared to vehicle control: 10 ng i.p. daily P6-P17, read at P17; for neovascularization at P17 compared to saline controls / protection from vaso-obliteration compared to saline-injected controls: 10 ng/day i.p. P6-P17
Method: (§1) O2-induced retinopathy (vessel degeneration, re-growth and pathological neovascularization). To induce vessel loss, postnatal day 7 (P7) mice with their nursing mother were exposed to 75% oxygen for times ranging from 24 hours to 5 days^1. To evaluate vaso-obliteration following 24 hours of oxygen exposure, P8 mice were anesthetized at with Avertin (Sigma) and perfused with 50 μl of 120 mg/ml FITC-dextran (2×10^6 molecular weight, FD2000S-5G, Sigma) in saline through the left ventricle^21. Eyes were enucleated and fixed in 4% paraformaldehyde for 2 h at 4° C. Retinas were isolated and whole-mounted with SlowFade Antifade reagent (S2828, Molecular Probes) onto polylysin-coated slides with the photoreceptor side up. Retinas were examined with a fluorescence microscope (Olympus, Tokyo), digitized images using a three-charge-coupled device color video camera (DX-950P, Sony), and processed with NORTHERN ECLIPSE software (Empix Imaging, Toronto). Retinal neovascularization was evaluated 5 days after oxygen exposure (P7-P12) at P17 when the neovascular response is greatest. P17 mice were given a lethal dose of Avertin (Sigma) and their eyes were enucleated and fixed in 4% paraformaldehyde for 2 h at 4° C. Retinas were isolated and stained overnight with fluoresceinated Griffonia Bandereiraea Simplicifolia Isolectin B4 (Alexa Fluor 488-121411 or Alexa Fluor 594-121413, Molecular Probes) in 1 mM CaCl2 in PBS. Following 2 hours of washes, retinas were whole-mounted with glycerol-gelatin (Sigma) onto polylysin-coated slides with the photoreceptor side up and imaged with a confocal microscope.
Quantification of vaso-obliteration and retinal neovascularization. Images of each of 4 quadrants of whole-mounted retina were taken at 5× magnification and imported into Adobe Photoshop. Retinal segments were merged to produce an image of the entire retina. Vaso-obliteration and neovascular tuft formation were quantified by comparing the number of pixels in the affected areas with the total number of pixels in the retina. Percentages of vaso-obliteration and neovascularization from mouse retinas were compared with values for retinas from age-matched control mice with identical oxygen conditions^17,22. Evaluation was done blind to the identity of the sample.
Resolvins and Neuroprotectins. C57B1/6 nursing mothers were fed a diet rich in either omega-6 or omega-3 polyunsaturated fatty acids from birth. To induce proliferative retinopathy in the pups, mice were exposed to 75% oxygen from P7 to P12. Retinas collected at P17 from omega-6 or omega-3 polyunsaturated fatty acid fed dams and exposed to high oxygen or room air conditions were analyzed to determine lipid mediator profiles. Polyunsaturated fatty acid derived products were extracted, identified, and quantified using a deuterium-labeled internal standard and MS-MS based mediator informatics^23. Results were obtained from retinas of six mice, each from a separate litter. Treatments with synthetic RvD1 (7S,8R,17S-trihydroxy-docosa-4Z,9E,11E,13Z,15E,19Z-hexaenoic acid), RvE1 (5S,12R,18R-trihydroxy-6Z,8E,10E,14Z,16E-eicosapentaenoic acid) and Neuroprotectin-D1 (10R,17S dihydroxy-docosa-4Z,7Z,11E,13E,15Z,19z-hexaneoic acid) were performed in 4 litters of mice. RvD1, RvE1 and NPD1 were prepared by organic synthesis according to published procedures matching physical and biological criteria^14,24,25. The pups were injected i.p. daily from P6-P17 (before, during, and after exposure to 75% oxygen) with 10 ng of either RvD1 (n=14), RvE1 (n=10) or NPD1 (n=14) or Saline/EtOH (n=14) vehicle. Following retinal staining and whole-mounting, neovascularization and vaso-obliteration were quantified at P17. Vaso-obliteration was also assessed at P8 (after 24 hours of 75% oxygen exposure) in pups given 10 ng of RvD1 (n=7), RvE1 (n=9), NPD1 (n=7), or saline/EtOH vehicle injections (n=6) i.p. from P5-P8. Vaso-obliteration was quantified on retinal whole-mounts following FITC-dextran intracardiac perfusion and fixation as above. […]

[2] = test system: oxygen-induced vessel loss (retinal vasculature); assay: Oxygen-induced vessel loss (vaso-obliteration) at P8 after 24 hours of 75% oxygen; type: in vivo, mouse; conditions: 10 ng i.p. P5-P8, 24 hours of 75% oxygen
Method: as §1, with “P17 mice were given a lethal dose of Avertin (Sigma) and their eyes were enucleated and fixed in 4% paraformaldehyde for 2 h at 4° C. Retinas were isolated and stained overnight with fluoresceinated Griffonia Bandereiraea Simplicifolia Isolectin B4 (Alexa Fluor 488-121411 or Alexa Fluor 594-121413, Molecular Probes) in 1 mM CaCl2 in PBS. Following 2 hours of washes, retinas were whole-mounted with glycerol-gelatin (Sigma) onto polylysin-coated slides with the photoreceptor side up and imaged with a confocal microscope.” left out
Quantification of vaso-obliteration and retinal neovascularization. […] Vaso-obliteration and neovascular tuft formation were quantified by comparing the number of pixels in the affected areas with the total number of pixels in the retina. […]
Resolvins and Neuroprotectins. […] Retinas collected at P17 from omega-6 or omega-3 polyunsaturated fatty acid fed dams and exposed to high oxygen or room air conditions were analyzed to determine lipid mediator profiles. Polyunsaturated fatty acid derived products were extracted, identified, and quantified using a deuterium-labeled internal standard and MS-MS based mediator informatics^23. […] Following retinal staining and whole-mounting, neovascularization and vaso-obliteration were quantified at P17. Vaso-obliteration was also assessed at P8 (after 24 hours of 75% oxygen exposure) in pups given 10 ng of RvD1 (n=7), RvE1 (n=9), NPD1 (n=7), or saline/EtOH vehicle injections (n=6) i.p. from P5-P8. […]

TNF-α = conditions: literature refs 14-16; cited from earlier work
[3] = test system: oxygen-induced retinopathy (retinal vasculature); assay: O2-induced retinopathy: vaso-obliteration and neovascularization at P17; type: in vivo, mouse
[4] = i.p. injection, 500 μg/mouse at P7, P12, P14, P16, omega-6 PUFA fed mice
[5] = intraocular (intravitreous) injection 12.5 μg on P12, omega-6 PUFA fed mice

Row | Compound | decrease in neovascularization (Tufts) compared to vehicle [1] [%] | decrease in vessel loss (VO) compared to vehicle control [1] [%] | neovascularization at P17 compared to saline controls [1] | protection from vaso-obliteration compared to saline-injected controls [1] | oxygen-induced vessel loss (VO) at P8 compared to saline-injected control [2] | TNF-α mRNA expression levels in inflammatory models (TNF-α) | pathologic neovascularization compared to saline injected controls [3, 4] | vaso-obliteration (vessel loss) compared to saline injected controls [3, 4] | retinal neovascularization compared to fellow saline-injected eye [3, 5] | vaso-obliteration compared to fellow saline-injected eye [3, 5]
1 | CC/C=C\C[C@H](O)\C=C/C=C/C=C/[C@H](O)C/C=C\C/C=C\CCC(=O)O [NPD1, 10R,17S dihydroxy-docosa-4Z,7Z,11E,13E,15Z,19z-hexaneoic acid] | 30 | 40 | less neovascularization | significant protection from vaso-obliteration | No apparent differences in vessel loss; also recorded: no protective action | significantly reduce TNF-α mRNA expression levels |  |  |  | 
2 | CC/C=C\C[C@H](O)/C=C/C=C\C=C\C=C\[C@@H](O)[C@@H](O)C/C=C\CCC(=O)O [RvD1, 7S,8R,17S-trihydroxy-docosa-4Z,9E,11E,13Z,15E,19Z-hexaenoic acid] | 30 | 40 | less neovascularization | significant protection from vaso-obliteration | No apparent differences in vessel loss | significantly reduce TNF-α mRNA expression levels |  |  |  | 
3 | CC[C@@H](O)/C=C/C=C\C[C@@H](O)/C=C/C=C/C=C\[C@@H](O)CCCC(=O)O [RvE1, 5S,12R,18R-trihydroxy-6Z,8E,10E,14Z,16E-eicosapentaenoic acid] | 30 | 40 | less neovascularization | significant protection from vaso-obliteration | No apparent differences in vessel loss; also recorded: no protective action | significantly reduce TNF-α mRNA expression levels |  |  |  | 
4 | etanercept |  |  |  |  |  |  | significantly protected; also recorded: significant reduction in pathologic neovascularization | significantly protected; also recorded: significant reduction in vaso-obliteration | suppressed retinal neovascularization; also recorded: significantly improved neovascularization | significantly reduce vaso-obliteration
